# Laboratory results from ChEMBL document CHEMBL1201862, “PubChem BioAssay data set” (2004).
# Where “and” joins values, the source holds several entries; their conditions need not be identical. Equal entries are not always repeated.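 Values below derive from 48-hour exposures of cells grown in 96-well plates, with endpoints linearly interpolated between the two concentrations bracketing the appropriate inhibition level. GI50: concentration for 50% inhibition of growth.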 Calls of active or inactive are those of the source. No stated cut-off is given here; in the data, active = GI50 up to about 1.1 µM and inactive = higher.
# How the values were obtained:
# Assay in all cases: inhibition of tumour cell growth, NCI panel, 48 h
# OVCAR-5 = tested on: OVCAR-5
# DMS-273 = tested on: DMS-273
# BT-549 = tested on: BT-549
# HL-60 = tested on: HL-60
# MDA-MB-231 = tested on: MDA-MB-231
# KM12 = tested on: KM12
# M14 = tested on: M14
# EKVX = tested on: EKVX
# A498 = tested on: A498
# LOX IMVI = tested on: LOX IMVI
# HCT-116 = tested on: HCT-116
# SK-OV-3 = tested on: SK-OV-3
# HCT-15 = tested on: HCT-15
# 786-0 = tested on: 786-0
# HOP-62 = tested on: HOP-62
# RXF 393 = tested on: RXF 393
# SF-295 = tested on: SF-295
# NCI/ADR-RES = tested on: NCI/ADR-RES
# IGROV-1 = tested on: IGROV-1
# UACC-257 = tested on: UACC-257
# CCRF-CEM = tested on: CCRF-CEM
# SNB-75 = tested on: SNB-75
# MCF7 = tested on: MCF7
# MDA-MB-435 = tested on: MDA-MB-435
# MOLT-4 = tested on: MOLT-4
# RPMI-8226 = tested on: RPMI-8226
# NCI-H522 = tested on: NCI-H522
# OVCAR-4 = tested on: OVCAR-4
# UACC-62 = tested on: UACC-62
# OVCAR-3 = tested on: OVCAR-3
# TK-10 = tested on: TK-10
# SF-268 = tested on: SF-268
# SW-620 = tested on: SW-620
# NCI-H226 = tested on: NCI-H226
# SNB-19 = tested on: SNB-19
# SK-MEL-2 = tested on: SK-MEL-2
# PC-3 = tested on: PC-3
# MDA-N = tested on: MDA-N
# NCI-H23 = tested on: NCI-H23
# NCI-H460 = tested on: NCI-H460
# SR = tested on: SR
# SN12C = tested on: SN12C
# ACHN = tested on: ACHN
# Hs-578T = tested on: Hs-578T
# OVCAR-8 = tested on: OVCAR-8
# U-251 = tested on: U-251
# UO-31 = tested on: UO-31
# CAKI-1 = tested on: CAKI-1
# Malme-3M = tested on: Malme-3M
# SK-MEL-5 = tested on: SK-MEL-5
# HT-29 = tested on: HT-29
# HOP-92 = tested on: HOP-92
# DU-145 = tested on: DU-145
# HCC 2998 = tested on: HCC 2998
# COLO 205 = tested on: COLO 205
# SK-MEL-28 = tested on: SK-MEL-28
# SF-539 = tested on: SF-539
# A549 = tested on: A549
# K562 = tested on: K562
# T47D = tested on: T47D
# DLD-1 = tested on: DLD-1
# DMS-114 = tested on: DMS-114
# M19-MEL = tested on: M19-MEL
# LXFL 529 = tested on: LXFL 529
# KM-20L2 = tested on: KM-20L2
smiles,measurement,setting,value
O=c1[nH]c(=O)n([C@H]2C[C@H](O)[C@@H](CO)O2)cc1F [FLOXURIDINE],GI50,OVCAR-5,103 µM (inactive) and > 89.9 µM (inactive)
same,GI50,DMS-273,0.319 µM (active)
CC(C)=CC(O)C/C(C)=C/CC/C(C)=C/CCC1(C)C(CCCO)/C(=C(/C)C=O)CCC1(C)O (centres undefined),GI50,BT-549,40.6 µM (inactive)
same,GI50,HL-60,23 µM (inactive)
same,GI50,MDA-MB-231,24.7 µM (inactive)
same,GI50,KM12,22.2 µM (inactive)
same,GI50,M14,26.1 µM (inactive)
same,GI50,EKVX,27.5 µM (inactive)
same,GI50,A498,34.2 µM (inactive)
same,GI50,LOX IMVI,32.5 µM (inactive)
same,GI50,HCT-116,40 µM (inactive)
same,GI50,OVCAR-5,> 100 µM (inactive)
same,GI50,SK-OV-3,47.8 µM (inactive)
same,GI50,HCT-15,46.3 µM
same,GI50,786-0,35.7 µM (inactive)
same,GI50,HOP-62,25.9 µM (inactive)
same,GI50,RXF 393,25.7 µM (inactive)
same,GI50,SF-295,28.8 µM (inactive)
same,GI50,NCI/ADR-RES,65.3 µM (inactive)
same,GI50,IGROV-1,24.8 µM (inactive)
same,GI50,UACC-257,31.5 µM (inactive)
same,GI50,CCRF-CEM,30.5 µM (inactive)
same,GI50,SNB-75,> 100 µM (inactive)
same,GI50,MCF7,37.4 µM (inactive)
same,GI50,MDA-MB-435,31 µM (inactive)
same,GI50,MOLT-4,24.7 µM (inactive)
same,GI50,RPMI-8226,21.3 µM (inactive)
same,GI50,NCI-H522,39.7 µM (inactive)
same,GI50,OVCAR-4,25.5 µM (inactive)
same,GI50,UACC-62,35.9 µM (inactive)
same,GI50,OVCAR-3,86.1 µM (inactive)
same,GI50,TK-10,30.3 µM (inactive)
same,GI50,SF-268,40.5 µM (inactive)
same,GI50,SW-620,40.6 µM (inactive)
same,GI50,NCI-H226,74.3 µM (inactive)
same,GI50,SNB-19,97.7 µM (inactive)
same,GI50,SK-MEL-2,59.3 µM (inactive)
same,GI50,PC-3,44.8 µM (inactive)
same,GI50,MDA-N,22.1 µM (inactive)
same,GI50,NCI-H23,20 µM (inactive)
same,GI50,NCI-H460,25.6 µM (inactive)
same,GI50,SR,37 µM (inactive)
same,GI50,SN12C,31.9 µM (inactive)
same,GI50,ACHN,20.6 µM (inactive)
same,GI50,Hs-578T,35.6 µM (inactive)
same,GI50,OVCAR-8,47 µM (inactive)
same,GI50,U-251,34 µM (inactive)
same,GI50,UO-31,33.7 µM (inactive)
same,GI50,CAKI-1,41.9 µM (inactive)
same,GI50,Malme-3M,34 µM (inactive)
same,GI50,SK-MEL-5,43.9 µM (inactive)
same,GI50,HT-29,26.1 µM (inactive)
same,GI50,HOP-92,22.8 µM (inactive)
same,GI50,DU-145,57 µM (inactive)
same,GI50,HCC 2998,26.4 µM (inactive)
same,GI50,COLO 205,32.7 µM (inactive)
same,GI50,SK-MEL-28,29.6 µM (inactive)
same,GI50,SF-539,25.1 µM (inactive)
same,GI50,A549,28.4 µM (inactive)
same,GI50,K562,2.99 µM (inactive)
same,GI50,T47D,61.9 µM (inactive)
C=CCC1C(=O)C(C(=O)OC)N2CCc3c([nH]c4ccccc34)C12 (centres undefined),GI50,HL-60,> 100 µM (inactive)
same,GI50,KM12,> 100 µM (inactive)
same,GI50,M14,> 100 µM (inactive)
same,GI50,EKVX,> 100 µM (inactive)
same,GI50,DLD-1,> 100 µM (inactive)
same,GI50,DMS-114,> 100 µM (inactive)
same,GI50,A498,> 100 µM (inactive)
same,GI50,HCT-116,> 100 µM (inactive)
same,GI50,OVCAR-5,> 100 µM (inactive)
same,GI50,SK-OV-3,> 100 µM (inactive)
same,GI50,HCT-15,> 100 µM
same,GI50,786-0,> 100 µM (inactive)
same,GI50,HOP-62,> 100 µM (inactive)
same,GI50,RXF 393,> 100 µM (inactive)
same,GI50,M19-MEL,> 100 µM (inactive)
same,GI50,SF-295,> 100 µM (inactive)
same,GI50,IGROV-1,> 100 µM (inactive)
same,GI50,CCRF-CEM,95.5 µM (inactive)
same,GI50,LXFL 529,> 100 µM (inactive)
same,GI50,MOLT-4,64.9 µM (inactive)
same,GI50,RPMI-8226,59.2 µM (inactive)
same,GI50,NCI-H522,80 µM (inactive)
same,GI50,OVCAR-4,> 100 µM (inactive)
same,GI50,UACC-62,> 100 µM (inactive)
same,GI50,OVCAR-3,> 100 µM (inactive)
same,GI50,TK-10,> 100 µM (inactive)
same,GI50,SF-268,> 100 µM (inactive)
same,GI50,SW-620,> 100 µM (inactive)
same,GI50,SNB-19,> 100 µM (inactive)
same,GI50,SK-MEL-2,> 100 µM (inactive)
same,GI50,KM-20L2,> 100 µM (inactive)
same,GI50,NCI-H23,> 100 µM (inactive)
same,GI50,SR,61.1 µM (inactive)
same,GI50,SN12C,> 100 µM (inactive)
same,GI50,OVCAR-8,> 100 µM (inactive)
same,GI50,U-251,> 100 µM (inactive)
same,GI50,UO-31,> 100 µM (inactive)
same,GI50,CAKI-1,> 100 µM (inactive)
same,GI50,Malme-3M,> 100 µM (inactive)
same,GI50,SK-MEL-5,> 100 µM (inactive)
same,GI50,HT-29,> 100 µM (inactive)
same,GI50,HOP-92,57.4 µM (inactive)
same,GI50,HCC 2998,> 100 µM (inactive)
same,GI50,COLO 205,> 100 µM (inactive)
same,GI50,SK-MEL-28,> 100 µM (inactive)
same,GI50,SF-539,> 100 µM (inactive)
same,GI50,A549,> 100 µM (inactive)
same,GI50,K562,> 100 µM (inactive)
